Activity calls are given as the source filed them.
How the values were obtained:
[1] = molecular target: T1, Eukaryotic translation initiation factor 2-alpha kinase 3 (Homo sapiens, UniProt Q9NZJ5); assay: Dose response cell-based high-throughput screening assay to measure PERK inhibition. [Related pubchem assays: 1416 ]; assay type: functional
T1 sequence (Q9NZJ5 whole entry): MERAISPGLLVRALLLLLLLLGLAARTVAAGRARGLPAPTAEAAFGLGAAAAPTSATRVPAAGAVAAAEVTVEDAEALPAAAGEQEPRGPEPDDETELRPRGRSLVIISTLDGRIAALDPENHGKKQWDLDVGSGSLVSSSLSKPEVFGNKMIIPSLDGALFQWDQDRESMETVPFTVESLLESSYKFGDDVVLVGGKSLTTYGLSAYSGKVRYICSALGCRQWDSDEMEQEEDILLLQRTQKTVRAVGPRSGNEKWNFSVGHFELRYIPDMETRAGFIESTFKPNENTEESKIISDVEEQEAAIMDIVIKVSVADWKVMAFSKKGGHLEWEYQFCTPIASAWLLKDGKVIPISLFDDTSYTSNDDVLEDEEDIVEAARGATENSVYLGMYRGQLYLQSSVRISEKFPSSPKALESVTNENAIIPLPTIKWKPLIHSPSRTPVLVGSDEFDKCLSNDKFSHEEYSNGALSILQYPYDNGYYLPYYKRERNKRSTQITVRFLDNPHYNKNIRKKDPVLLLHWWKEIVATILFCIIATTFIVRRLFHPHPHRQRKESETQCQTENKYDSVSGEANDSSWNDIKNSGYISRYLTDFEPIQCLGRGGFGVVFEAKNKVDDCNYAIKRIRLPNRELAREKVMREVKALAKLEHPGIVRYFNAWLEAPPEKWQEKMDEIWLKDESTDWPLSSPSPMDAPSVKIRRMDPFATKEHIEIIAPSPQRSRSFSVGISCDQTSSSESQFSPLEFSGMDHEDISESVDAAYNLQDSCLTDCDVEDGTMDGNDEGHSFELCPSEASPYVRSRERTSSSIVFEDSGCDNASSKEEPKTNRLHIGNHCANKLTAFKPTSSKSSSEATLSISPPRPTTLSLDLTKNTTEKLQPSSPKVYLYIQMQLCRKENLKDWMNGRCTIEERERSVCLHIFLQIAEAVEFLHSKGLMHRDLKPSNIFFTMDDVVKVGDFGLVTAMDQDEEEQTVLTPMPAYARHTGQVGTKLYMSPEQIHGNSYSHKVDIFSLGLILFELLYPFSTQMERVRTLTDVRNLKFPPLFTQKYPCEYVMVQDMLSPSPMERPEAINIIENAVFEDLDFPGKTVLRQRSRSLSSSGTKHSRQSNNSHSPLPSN

[2] = molecular target: T1, Eukaryotic translation initiation factor 2-alpha kinase 3; assay: Counterscreen assay for PERK inhibitors: Dose response cell-based high throughput screening assay to measure inhibition of PERK at 6 hours. [Related pubchem assays: 1522, 1416 ]; assay type: functional
Protein skinhead-1 = molecular target: T2, Protein skinhead-1 (Caenorhabditis elegans, UniProt P34707); assay type: functional
T2 sequence (P34707 whole entry): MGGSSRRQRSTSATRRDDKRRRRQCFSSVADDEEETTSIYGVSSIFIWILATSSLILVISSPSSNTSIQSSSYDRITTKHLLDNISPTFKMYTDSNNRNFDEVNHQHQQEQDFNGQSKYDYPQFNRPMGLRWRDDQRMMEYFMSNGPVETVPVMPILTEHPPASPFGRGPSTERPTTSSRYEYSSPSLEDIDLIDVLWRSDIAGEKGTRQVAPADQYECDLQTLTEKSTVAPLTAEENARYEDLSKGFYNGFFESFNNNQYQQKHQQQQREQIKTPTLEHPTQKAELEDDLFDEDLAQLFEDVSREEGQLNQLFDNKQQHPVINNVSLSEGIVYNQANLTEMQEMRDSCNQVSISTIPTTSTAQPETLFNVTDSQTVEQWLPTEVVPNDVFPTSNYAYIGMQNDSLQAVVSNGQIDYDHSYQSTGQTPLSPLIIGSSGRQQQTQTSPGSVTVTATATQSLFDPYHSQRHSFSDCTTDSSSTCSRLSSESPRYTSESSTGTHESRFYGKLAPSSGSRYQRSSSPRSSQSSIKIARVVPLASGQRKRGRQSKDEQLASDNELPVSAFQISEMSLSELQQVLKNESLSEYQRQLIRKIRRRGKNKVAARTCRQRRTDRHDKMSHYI

[3] = molecular target: Lysosomal acid glucosylceramidase (Homo sapiens, UniProt P04062); assay: Dose response cell-based high throughput screening assay to identify enhancers of beta-glucosidase activity. [Related pubchem assays: 784 ]; assay type: functional
Chain of Lysosomal acid glucosylceramidase (P04062 whole entry): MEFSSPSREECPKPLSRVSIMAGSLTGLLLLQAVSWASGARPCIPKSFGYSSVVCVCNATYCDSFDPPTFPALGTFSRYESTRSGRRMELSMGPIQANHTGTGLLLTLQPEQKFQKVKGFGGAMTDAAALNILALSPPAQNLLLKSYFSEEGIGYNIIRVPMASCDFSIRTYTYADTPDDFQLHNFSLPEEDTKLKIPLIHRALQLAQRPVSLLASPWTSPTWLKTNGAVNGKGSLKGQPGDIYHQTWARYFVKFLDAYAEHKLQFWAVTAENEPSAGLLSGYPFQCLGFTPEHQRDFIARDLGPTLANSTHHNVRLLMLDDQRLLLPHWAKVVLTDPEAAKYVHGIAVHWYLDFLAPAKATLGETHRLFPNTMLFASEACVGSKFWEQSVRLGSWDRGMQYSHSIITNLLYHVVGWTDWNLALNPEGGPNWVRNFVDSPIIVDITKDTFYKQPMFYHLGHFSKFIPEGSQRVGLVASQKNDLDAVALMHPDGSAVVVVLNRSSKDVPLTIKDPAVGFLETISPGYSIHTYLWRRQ

X-box-binding protein 1 = X-box-binding protein 1 (Homo sapiens, UniProt P17861); assay type: functional, Cricetulus griseus;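 further: confirmatory dose-response counter-screen serving a CHOP assay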
Chain of X-box-binding protein 1 (P17861 whole entry): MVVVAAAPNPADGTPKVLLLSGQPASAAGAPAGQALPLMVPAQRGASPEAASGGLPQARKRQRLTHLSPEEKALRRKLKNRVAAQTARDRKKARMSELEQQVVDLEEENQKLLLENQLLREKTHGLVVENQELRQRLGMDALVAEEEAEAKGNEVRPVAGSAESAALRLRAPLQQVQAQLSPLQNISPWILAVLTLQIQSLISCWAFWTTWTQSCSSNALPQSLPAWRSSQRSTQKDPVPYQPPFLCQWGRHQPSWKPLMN

[4] = molecular target: T3, Replicative DNA helicase DnaB (Mycobacterium tuberculosis, UniProt P9WMR3); assay: DnaB intein splicing inhibitors, dose response, biochemical, cell-free fluorescence (AID 449749); assay type: functional
T3 sequence (P9WMR3 whole entry): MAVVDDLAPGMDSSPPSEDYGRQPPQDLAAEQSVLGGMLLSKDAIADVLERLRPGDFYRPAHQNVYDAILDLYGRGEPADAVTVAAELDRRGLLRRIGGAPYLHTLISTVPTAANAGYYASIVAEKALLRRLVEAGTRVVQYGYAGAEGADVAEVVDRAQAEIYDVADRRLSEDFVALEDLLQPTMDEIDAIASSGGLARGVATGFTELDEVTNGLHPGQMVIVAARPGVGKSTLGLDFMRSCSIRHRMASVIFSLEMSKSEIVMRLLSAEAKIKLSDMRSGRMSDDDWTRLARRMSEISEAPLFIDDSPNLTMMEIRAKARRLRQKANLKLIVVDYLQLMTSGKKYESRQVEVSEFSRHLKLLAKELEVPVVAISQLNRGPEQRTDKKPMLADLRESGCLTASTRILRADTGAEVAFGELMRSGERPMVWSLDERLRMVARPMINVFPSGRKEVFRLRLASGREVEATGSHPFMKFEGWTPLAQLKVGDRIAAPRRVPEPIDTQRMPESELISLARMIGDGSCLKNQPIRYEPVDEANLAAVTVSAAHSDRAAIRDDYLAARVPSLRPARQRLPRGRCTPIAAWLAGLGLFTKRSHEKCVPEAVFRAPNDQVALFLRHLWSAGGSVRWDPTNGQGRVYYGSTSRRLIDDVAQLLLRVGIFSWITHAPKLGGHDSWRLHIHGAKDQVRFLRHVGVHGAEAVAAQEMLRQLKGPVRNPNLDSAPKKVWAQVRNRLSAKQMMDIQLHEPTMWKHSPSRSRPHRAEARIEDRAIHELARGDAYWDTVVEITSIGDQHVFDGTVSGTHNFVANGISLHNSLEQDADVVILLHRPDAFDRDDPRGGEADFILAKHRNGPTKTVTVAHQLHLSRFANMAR

Protein RecA = molecular target: T4, Protein RecA (Mycobacterium tuberculosis, UniProt P9WHJ3); assay: Fluorescence Cell-Free Homogeneous Dose Retest to Identify Inhibitors of RecA-Intein Splicing Activity. [Related pubchem assays (depositor defined):AID2097, AID2223, AID489010, AID492950]; assay type: functional
T4 sequence (P9WHJ3 whole entry): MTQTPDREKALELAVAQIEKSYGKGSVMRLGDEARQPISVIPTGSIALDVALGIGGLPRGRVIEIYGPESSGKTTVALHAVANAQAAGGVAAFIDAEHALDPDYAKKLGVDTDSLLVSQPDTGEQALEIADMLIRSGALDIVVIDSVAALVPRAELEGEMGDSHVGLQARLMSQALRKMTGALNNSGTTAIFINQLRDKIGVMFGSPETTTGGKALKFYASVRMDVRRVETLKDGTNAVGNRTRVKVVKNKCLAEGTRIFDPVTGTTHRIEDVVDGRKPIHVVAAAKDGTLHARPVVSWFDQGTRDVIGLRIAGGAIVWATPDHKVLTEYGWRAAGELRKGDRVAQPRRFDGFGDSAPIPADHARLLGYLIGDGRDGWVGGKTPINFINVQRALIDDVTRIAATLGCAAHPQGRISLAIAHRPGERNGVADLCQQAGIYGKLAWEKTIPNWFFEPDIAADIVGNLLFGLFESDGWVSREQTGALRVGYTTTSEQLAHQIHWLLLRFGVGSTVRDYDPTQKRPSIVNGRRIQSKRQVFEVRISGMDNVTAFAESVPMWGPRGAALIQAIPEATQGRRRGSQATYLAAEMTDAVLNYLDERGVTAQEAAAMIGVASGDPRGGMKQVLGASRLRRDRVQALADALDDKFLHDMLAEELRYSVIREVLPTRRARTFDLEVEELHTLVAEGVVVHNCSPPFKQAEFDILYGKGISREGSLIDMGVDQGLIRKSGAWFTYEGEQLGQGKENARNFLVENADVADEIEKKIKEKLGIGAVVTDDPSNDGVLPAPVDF

[5] = Cytotoxicity screening for potential Inhibitors of Bacterial Capsule Biogenesis. [Related pubchem assays (depositor defined):AID488970]; assay type: functional
INS1 = assay: INS-1E survival protection against cytokine death – cell-based, luminescence, retest, dose response (AID 449756); assay type: functional; details: Rattus norvegicus, INS1;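 further: cell death triggered by IL-1 beta plus TNF-alpha plus IFN-gamma mixture; protective hits raise ATP signal compared with cytokine alone wells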
HeLa = assay: viability loss in HeLa cells – cell-based, 24 h, cherry-picked samples, cytotoxicity control, dose response (AID 504726); assay type: functional; details: Homo sapiens;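 further: potency for cytotoxicity as loss of luminescence signal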
Salmon testes DNA = assay: acridine orange-DNA binding displacement – biochemical, fluorescence polarization, cherry-picked samples, set 2, artefact control for KSHV LANA DNA-binding inhibitor project, dose response (AID 504727); set-up: species or system Salmonidae
ORF 73 = molecular target: T5, ORF 73 (Human herpesvirus 8, UniProt O40947); assay: KSHV LANA DNA-binding disruption – biochemical, fluorescence polarization, cherry-picked samples, dose response (AID 504725); set-up: species or system Human gammaherpesvirus 8;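 further: fluorescence polarization of a labeled DNA duplex reporting LANA DNA binding; potency is for inhibitors that block LANA binding to the DNA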
T5 sequence (O40947 whole entry): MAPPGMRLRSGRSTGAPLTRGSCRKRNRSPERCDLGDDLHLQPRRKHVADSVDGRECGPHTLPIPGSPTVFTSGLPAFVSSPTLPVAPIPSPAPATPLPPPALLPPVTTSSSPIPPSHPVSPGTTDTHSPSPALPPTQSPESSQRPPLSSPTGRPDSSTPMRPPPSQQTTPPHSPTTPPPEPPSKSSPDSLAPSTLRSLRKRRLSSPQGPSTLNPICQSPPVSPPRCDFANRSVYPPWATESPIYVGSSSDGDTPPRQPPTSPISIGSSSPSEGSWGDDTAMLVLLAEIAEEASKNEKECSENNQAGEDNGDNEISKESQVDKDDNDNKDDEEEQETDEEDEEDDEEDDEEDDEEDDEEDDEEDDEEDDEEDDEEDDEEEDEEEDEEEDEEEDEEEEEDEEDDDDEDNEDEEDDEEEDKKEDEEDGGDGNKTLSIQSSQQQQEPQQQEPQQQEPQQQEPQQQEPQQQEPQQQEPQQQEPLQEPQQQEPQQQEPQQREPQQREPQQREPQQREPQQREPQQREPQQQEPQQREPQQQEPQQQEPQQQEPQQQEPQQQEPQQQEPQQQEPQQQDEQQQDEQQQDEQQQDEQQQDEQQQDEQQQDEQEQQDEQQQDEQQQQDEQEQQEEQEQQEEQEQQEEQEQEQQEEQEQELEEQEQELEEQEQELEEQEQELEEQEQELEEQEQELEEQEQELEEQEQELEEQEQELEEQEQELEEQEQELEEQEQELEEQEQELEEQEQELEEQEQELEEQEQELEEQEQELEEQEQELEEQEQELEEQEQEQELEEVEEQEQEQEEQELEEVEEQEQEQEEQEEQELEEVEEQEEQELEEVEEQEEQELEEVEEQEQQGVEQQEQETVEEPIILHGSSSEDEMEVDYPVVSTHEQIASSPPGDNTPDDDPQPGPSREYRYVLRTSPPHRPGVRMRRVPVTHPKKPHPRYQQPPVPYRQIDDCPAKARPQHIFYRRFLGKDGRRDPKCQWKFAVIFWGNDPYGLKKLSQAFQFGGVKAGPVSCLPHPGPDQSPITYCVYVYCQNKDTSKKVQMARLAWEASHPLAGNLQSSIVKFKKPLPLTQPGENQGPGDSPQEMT

[6] = molecular target: T6, Endoribonuclease toxin MazF (Escherichia coli K-12, UniProt P0AE70); assay: activation of MazEF endoribonuclease cleavage – biochemical, fluorescence, single-stranded RNA substrate, uHTS hits, dose response (AID 588481); assay type: functional
T6 sequence (P0AE70 whole entry): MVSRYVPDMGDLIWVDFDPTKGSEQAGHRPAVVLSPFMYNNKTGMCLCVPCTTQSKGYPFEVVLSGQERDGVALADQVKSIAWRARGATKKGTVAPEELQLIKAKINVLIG

[7] = molecular target: T6, Endoribonuclease toxin MazF; assay: substrate-only fluorescence increase artefacts – biochemical, single-stranded RNase substrate, counter-screen for MazEF activator project, dose response (AID 588502); assay type: functional

Structure (SMILES): CCOc1cc(C(N)=O)cc(Br)c1OC
- EC50 [1]: > 55.7 µM (not active)
- EC50 [2]: > 55.7 µM (not active)
- IC50 (Protein skinhead-1): > 100 µM (inactive)

Structure (SMILES): CC(=O)N1C(C(=O)O)CSC1c1cccc(C)c1 (centres undefined)
- EC50 [3]: > 50 µM (not active)

Structure (SMILES): CC1(C)CC(C(CCN(Cc2ccccc2)C(=O)c2ccco2)c2ccc(F)cc2)CCO1 (centres undefined)
- Absolute IC50 (XBP1) (X-box-binding protein 1): 10 µM
- AC50 [4]: 6.07 µM (active)
- EC50 (Protein RecA): 20.9 µM (active)

Structure (SMILES): O=C(N/N=C/c1ccc(O)cc1O)c1ccc(NC(=O)C2CCCCC2)cc1
- CC50 [5]: 8.95 µM (active)
- AC50 (INS1): 4.01 µM (active)

Structure (SMILES): COc1ccc2c(c1)c1nc3ccccc3nc1n2CC(=O)OC(C)C
- AC50 (HeLa): 216 µM (active)
- AC50 (Salmon testes DNA): 134 µM (active)
- AC50 (ORF 73): 77 µM (active)
- EC50 [6]: > 99 µM (inactive)
- EC50 [7]: 19.6 µM (active)
